US9394329B2, “Glucopyranosyl derivatives and their uses in medicine” (Sunshine Lake Pharma Co., Ltd., priority 2013, dated 2016)

Key:
SGLT-2 = biological target: T1, SGLT-2 (Homo sapiens, UniProt P31639); experiment: SGLT-2 activity measurement ([14C]-AMG uptake in CHO cells expressing human SGLT2); type: cell-based; conditions: CHO cells expressing human SGLT2, 0.5 μm [14C]-AMG, 37° C. for 1 hour
T1 construct: expressed in transfected cells
T1 sequence (P31639 1-672): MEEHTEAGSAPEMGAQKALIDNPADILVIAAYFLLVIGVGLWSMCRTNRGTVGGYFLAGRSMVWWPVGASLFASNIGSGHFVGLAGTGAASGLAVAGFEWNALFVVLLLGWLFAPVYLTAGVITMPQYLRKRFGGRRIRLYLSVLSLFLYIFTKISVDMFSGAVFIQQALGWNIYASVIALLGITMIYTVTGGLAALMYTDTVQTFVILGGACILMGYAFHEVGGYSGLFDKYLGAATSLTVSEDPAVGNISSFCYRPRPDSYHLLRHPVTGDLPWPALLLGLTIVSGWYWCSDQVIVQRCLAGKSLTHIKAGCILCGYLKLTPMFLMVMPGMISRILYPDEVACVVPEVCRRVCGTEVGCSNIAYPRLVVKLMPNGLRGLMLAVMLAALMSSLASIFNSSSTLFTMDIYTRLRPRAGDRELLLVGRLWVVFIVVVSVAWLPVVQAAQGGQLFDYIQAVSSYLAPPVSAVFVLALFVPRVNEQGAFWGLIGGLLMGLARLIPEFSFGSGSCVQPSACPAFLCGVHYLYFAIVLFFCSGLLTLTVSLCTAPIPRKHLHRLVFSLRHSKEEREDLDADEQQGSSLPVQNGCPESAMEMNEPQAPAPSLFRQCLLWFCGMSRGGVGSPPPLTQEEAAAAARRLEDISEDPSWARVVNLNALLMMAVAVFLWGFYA
Text: (§1) The following methods can be used to determine the inhibitory activity of the compounds described in the invention for SGLT-1 and SGLT-2.
(§2) ^14C-AMG solution was purchased from PerkinElmer, Cat. No. NEZ080001MC.
(§3) α-Methylglucoside was purchased from Sigma, Cat. No. M9376-100G.
(§4) N-methyl-D-glucosamine was purchased from Sigma, Cat. No. M2004-100G.
(§5) Phloridzin was purchased from Sigma, Cat. No. P3449-1G.
(§6) 96-Well plate was purchased from Corning, Cat. No. 3903.
(§7) Mock-transfected FIP-in CHO cells (3×10^4 cells) and expressing human SGLT1/SGLT2 CHO cells were seeded into 96-well plates respectively. The cells were incubated for 12 hours. Each well of the 96-well plates was washed with 150 μL of sodium-free buffer once. To each well was added 50 μL of sodium-containing buffer containing test compounds having different concentrations and […] [^14C]-AMG. The incubation mixture was incubated at 37° C. for 1 hour. To each well was added 150 μL of precooled sodium-free buffer to terminate the reaction. The cell pellet was washed with sodium-free buffer three times and the residual liquid in well was removed. To each well was added 20 μL of precooled 100 mM NaOH. The 96-well plates were vibrated at 900 rpm for 5 minutes. Scintillation fluid (80 μL) was added to each well which was then vibrated at 600 rpm for 5 minutes. The amount of ^14C-AMG was quantitatively detected using liquid scintillation.

SGLT-1 = biological target: T2, SGLT-1 (Homo sapiens, UniProt P13866); experiment: SGLT-1 activity measurement ([14C]-AMG uptake in CHO cells expressing human SGLT1); type: cell-based; conditions: CHO cells expressing human SGLT1, 0.5 μm [14C]-AMG, 37° C. for 1 hour
T2 construct: expressed in transfected cells
T2 sequence (P13866 1-664): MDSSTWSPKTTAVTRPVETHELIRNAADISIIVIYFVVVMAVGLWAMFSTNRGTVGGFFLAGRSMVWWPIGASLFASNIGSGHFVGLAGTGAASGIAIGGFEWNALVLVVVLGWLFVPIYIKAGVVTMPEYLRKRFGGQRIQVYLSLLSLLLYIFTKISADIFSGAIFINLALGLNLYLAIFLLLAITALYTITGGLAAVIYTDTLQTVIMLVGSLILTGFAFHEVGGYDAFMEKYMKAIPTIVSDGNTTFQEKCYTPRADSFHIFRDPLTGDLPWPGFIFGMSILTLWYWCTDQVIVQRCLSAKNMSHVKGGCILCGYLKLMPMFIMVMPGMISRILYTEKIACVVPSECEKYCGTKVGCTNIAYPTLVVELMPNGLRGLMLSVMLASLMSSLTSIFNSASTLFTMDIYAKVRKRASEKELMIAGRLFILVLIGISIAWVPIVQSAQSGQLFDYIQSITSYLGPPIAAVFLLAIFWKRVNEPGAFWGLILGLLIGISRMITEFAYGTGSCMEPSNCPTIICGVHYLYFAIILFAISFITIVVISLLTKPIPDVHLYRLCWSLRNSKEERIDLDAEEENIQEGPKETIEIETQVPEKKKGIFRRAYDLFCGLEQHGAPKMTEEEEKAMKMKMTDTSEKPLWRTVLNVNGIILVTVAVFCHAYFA
Text: as §1, §2, §3, §4, §5, §6, §7

SMILES | IC50 (SGLT-2) [nM] | IC50 (SGLT-1) [nM]
CC(O)[C@@]12CO[C@@](c3ccc(Cl)c(Cc4ccc(OC(F)(F)F)cc4)c3)(O1)[C@H](O)[C@@H](O)[C@@H]2O (stereo partly drawn) [Example 15, (1R,2S,3S,4R,5S)-5-[4-chloro-3-[[4-(trifluoromethoxy)phenyl]methyl]phenyl]-1-(1-hydroxyethyl)-6,8-dioxabicyclo[3.2.1]octane-2,3,4-triol] | 1.96 | 290
CCOc1ccc(Cc2cc([C@]34OC(C)[C@](CO)(O3)[C@@H](O)[C@H](O)[C@H]4O)ccc2Cl)cc1 (stereo partly drawn) [Example 8, (1R,2S,3S,4R,5S)-5-[4-Chloro-3-[(4-ethoxyphenyl)methyl]phenyl]-1-(hydroxymethyl)-7-methyl-6,8-dioxabicyclo[3.2.1]octane-2,3,4-triol] | 51.8 | 
CCOc1ccc(Cc2cc([C@]34OC[C@](C(O)CNC)(O3)[C@@H](O)[C@H](O)[C@H]4O)ccc2Cl)cc1 (stereo partly drawn) [Example 11, (1R,2S,3S,4R,5S)-5-[4-chloro-3-[(4-ethoxyphenyl)methyl]phenyl]-1-[1-hydroxy-2-(methylamino)ethyl]-6,8-dioxabicyclo[3.2.1]octane-2,3,4-triol] | 498 | 
CCOc1ccc(Cc2cc([C@]34OC[C@](C(O)CN)(O3)[C@@H](O)[C@H](O)[C@H]4O)ccc2Cl)cc1 (stereo partly drawn) [Example 10, (1R,2S,3S,4R,5S)-1-(2-Amino-1-hydroxy-ethyl)-5-[4-chloro-3-[(4-ethoxyphenyl)methyl]phenyl]-6,8-dioxabicyclo[3.2.1]octane-2,3,4-triol] | 3730 | 
CC(O)[C@@]12CO[C@@](c3ccc(Cl)c(Cc4ccc(OCC(F)(F)F)cc4)c3)(O1)[C@H](O)[C@@H](O)[C@@H]2O (stereo partly drawn) [Example 17, (1R,2S,3S,4R,5S)-5-[4-Chloro-3-[[4-(2,2,2-trifluoroethoxy)phenyl]methyl]phenyl]-1-(1-hydroxyethyl)-6,8-dioxabicyclo[3.2.1]octane-2,3,4-triol] | 1.22 | 820
CC#CC(O)[C@@]12CO[C@@](c3ccc(Cl)c(Cc4ccc(OCC)cc4)c3)(O1)[C@H](O)[C@@H](O)[C@@H]2O (stereo partly drawn) [Example 5, (1R,2S,3S,4R,5S)-5-[4-chloro-3 [(4-ethoxyphenyl)methyl]phenyl]-1-(1-hydroxybut-2-ynyl)-6,8-dioxabicyclo[3.2.1]octane-2,3,4-triol] |  | 840
CCOc1ccc(Cc2cc([C@]34OC[C@](C5(O)CC5)(O3)[C@@H](O)[C@H](O)[C@H]4O)ccc2Cl)cc1 [Example 6, (1S,2S,3S,4R,5S)-5-[4-Chloro-3 [(4-ethoxyphenyl)methyl]phenyl]-1-(1-hydroxycyclopropyl)-6,8-dioxabicyclo[3.2.1]octane-2,3,4-triol] | 3.6 | 26800
CCOc1ccc(Cc2cc([C@]34OCC(C(O)CC)(O3)[C@@H](O)[C@H](O)[C@H]4O)ccc2Cl)cc1 (stereo in doubt) [Example 3, (1S,2S,3S,4R,5S)-5-[4-Chloro-3 [(4-ethoxyphenyl)methyl]phenyl]-1-(1-hydroxypropyl)-6,8-dioxabicyclo[3.2.1]octane-2,3,4-triol] | 9.8 | 
CCOC(=O)OC(C)[C@@]12CO[C@@](c3ccc(Cl)c(Cc4ccc(OCC)cc4)c3)(O1)[C@H](O)[C@@H](O)[C@@H]2O (stereo partly drawn) [Example 12, 1-[(1S,2S,3S,4R,5S)-5-[4-Chloro-3-[(4-ethoxyphenyl)methyl]phenyl]-2,3,4-trihydroxy-6,8-dioxabicyclo[3.2.1]octan-1-yl]ethyl ethyl carbonate] | 12.7 | 
CCOc1ccc(Cc2cc([C@]34OC[C@](C(O)CO)(O3)[C@@H](O)[C@H](O)[C@H]4O)ccc2Cl)cc1 (stereo partly drawn) [Example 7, (1R,2S,3S,4R,5S)-5-[4-Chloro-3-[(4-ethoxyphenyl)methyl]phenyl]-1-(1,2-dihydroxyethyl)-6,8-dioxabicyclo[3.2.1]octane-2,3,4-triol] | 4.96 | 

Other lines, results leading:

IC50 (SGLT-2) [nM] | IC50 (SGLT-1) [nM] | SMILES
2.19 |  | CCOc1ccc(Cc2cc([C@]34OC[C@](C(C)(C)O)(O3)[C@@H](O)[C@H](O)[C@H]4O)ccc2Cl)c(F)c1F [Example 24, (1S,2S,3S,4R,5S)-5-[4-Chloro-3-[(4-ethoxy-2,3-difluoro-phenyl)methyl]phenyl]-1-(1-hydroxy-1-methyl-ethyl)-6,8-dioxabicyclo[3.2.1]octane-2,3,4-triol]
0.81 | 120 | COc1ccc(Cc2cc([C@]34OC[C@](C(C)O)(O3)[C@@H](O)[C@H](O)[C@H]4O)ccc2Cl)c(F)c1F (stereo partly drawn) [Example 21, (1R,2S,3S,4R,5S)-5-[4-Chloro-3-[(2,3-difluoro-4-methoxy-phenyl)methyl]phenyl]-1-(1-hydroxyethyl)-6,8-dioxabicyclo[3.2.1]octane-2,3,4-triol]
0.85 | 170 | CCOc1ccc(Cc2cc([C@]34OC[C@](C(C)(C)O)(O3)[C@@H](O)[C@H](O)[C@H]4O)ccc2Cl)cc1F [Example 20, (1S,2S,3S,4R,5S)-5-[4-Chloro-3-[(4-ethoxy-3-fluoro-phenyl)methyl]phenyl]-1-(1-hydroxy-1-methyl-ethyl)-6,8-dioxabicyclo[3.2.1]octane-2,3,4-triol]
12.1 |  | CCOc1ccc(Cc2cccc([C@]34OC[C@](C(C)O)(O3)[C@@H](O)[C@H](O)[C@H]4O)c2)cc1 (stereo partly drawn) [Example 30, (1R,2S,3S,4R,5S)-5-[3-[(4-Ethoxyphenyl)methyl]phenyl]-1-(1-hydroxyethyl)-6,8-dioxabicyclo[3.2.1]octane-2,3,4-triol]
12.6 | 3400 | CCOc1ccc(Cc2cc([C@]34OC[C@](C(C)O)(O3)[C@H](O)[C@H](O)[C@H]4O)ccc2Cl)cc1 (stereo partly drawn) [Example 28, (1R,2R,3S,4R,5S)-5-[4-Chloro-3-[(4-ethoxyphenyl)methyl]phenyl]-1-(1-hydroxyethyl)-6,8-dioxabicyclo[3.2.1]octane-2,3,4-triol]
1.46 |  | CCOc1ccc(C(O)c2cc([C@]34OC[C@](C(C)O)(O3)[C@@H](O)[C@H](O)[C@H]4O)ccc2Cl)cc1 (stereo partly drawn) [Example 29, (1R,2S,3S,4R,5S)-5-[4-chloro-3-[(4-ethoxyphenyl)-hydroxy-methyl]phenyl]-1-(1-hydroxyethyl)-6,8-dioxabicyclo[3.2.1]octane-2,3,4-triol]
6.85 |  | CCOc1ccc(Cc2cc([C@]34OC[C@](C5CO5)(O3)[C@@H](O)[C@H](O)[C@H]4O)ccc2Cl)cc1 (stereo partly drawn) [Example 26, (1S,2S,3S,4R,5S)-5-[4-chloro-3-[(4-ethoxyphenyl)methyl]phenyl]-1-(oxiran-2-yl)-6,8-dioxabicyclo[3.2.1]octane-2,3,4-triol]
3.66 | 350 | CC(C)(O)[C@@]12CO[C@@](c3ccc(Cl)c(Cc4ccc(OCC(F)(F)F)cc4)c3)(O1)[C@H](O)[C@@H](O)[C@@H]2O [Example 18, (1S,2S,3S,4R,5S)-5-[4-Chloro-3-[[4-(2,2,2-trifluoroethoxyl)phenyl]methyl]phenyl]-1-(1-hydroxy-1-methyl-ethyl)-6,8-dioxabicyclo[3.2.1]octane-2,3,4-triol]
13.8 |  | CCOc1ccc(Cc2cc([C@]34OC[C@](C5CNC(=O)O5)(O3)[C@@H](O)[C@H](O)[C@H]4O)ccc2Cl)cc1 (stereo partly drawn) [Example 27, 5-((1S,2S,3S,4R,5S)-5-(4-Chloro-3-(4-ethoxybenzyl)phenyl)-2,3,4-trihydroxy-6,8-dioxabicyclo[3.2.1]octan-1-yl)oxazolidin-2-one]
